Measurements: the supplement of paper PMC10307832

Key:
Test in all cases: relative viability (nuclei count vs DMSO), 5 days (fraction); higher = more cells survive
[1] = compound: O=C(C[C@H]1NCCC[C@@H]1O)Cn1cnc2cc(Br)c(Cl)cc2c1=O (racemic) [Halofuginone] + Nc1ncn([C@H]2C[C@H](O)[C@@H](CO)O2)c(=O)n1 [Decitabine] (partner 2 µM)
Summary of the method: (§1)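 Relative viability divides the nuclei count in treated wells by that in vehicle wells. Lung cancer cell lines were seeded in 1536-well plates, dosed by pin tool the next day, and fixed and stained after 5 days in one step with final 0.05% Triton X-100, 1% formaldehyde and 1 ug/ml Hoechst. Dosing was a single drug or a fixed anchor-drug dose plus five library-drug doses (not always all listed) in √10 steps, and values are medians of duplicate plates imaged at 4×.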

[2] = compound: O=C(C[C@H]1NCCC[C@@H]1O)Cn1cnc2cc(Br)c(Cl)cc2c1=O (racemic) [Halofuginone] + CC1(C)CCC(c2ccc(Cl)cc2)=C(CN2CCN(c3ccc(C(=O)NS(=O)(=O)c4ccc(N[C@H](CCN5CCOCC5)CSc5ccccc5)c(S(=O)(=O)C(F)(F)F)c4)cc3)CC2)C1 [Navitoclax] (partner 0.5 µM)
Summary of the method: as §1

[3] = compound: COc1cc2c(Oc3ccc4[nH]c(C)cc4c3F)ncnc2cc1OCCCN1CCCC1 [Cediranib] + C[C@@H](Oc1cc(-c2cnn(C3CCNCC3)c2)cnc1N)c1c(Cl)ccc(F)c1Cl [Crizotinib] (partner 1 µM)
Summary of the method: as §1

[4] = compound: O=C(C[C@H]1NCCC[C@@H]1O)Cn1cnc2cc(Br)c(Cl)cc2c1=O (racemic) [Halofuginone] + CC(C)C[C@H](NC(=O)[C@H](Cc1ccccc1)NC(=O)c1cnccn1)B(O)O [Bortezomib] (partner 0.002 µM)
Summary of the method: as §1

Cell Line	relative viability ([1]; first compound 0.001 µM)	relative viability ([1]; first compound 0.003162 µM)	relative viability ([1]; first compound 0.01 µM)	relative viability ([1]; first compound 0.03162 µM)	relative viability ([1]; first compound 0.1 µM)	relative viability ([2]; first compound 0.001 µM)	relative viability ([2]; first compound 0.003162 µM)	relative viability ([2]; first compound 0.01 µM)	relative viability ([2]; first compound 0.03162 µM)	relative viability ([2]; first compound 0.1 µM)	relative viability ([3]; first compound 0.04 µM)	relative viability ([3]; first compound 0.4 µM)	relative viability ([3]; first compound 1.265 µM)	relative viability ([3]; first compound 4 µM)	relative viability ([4]; first compound 0.001 µM)	relative viability ([4]; first compound 0.003162 µM)	relative viability ([4]; first compound 0.01 µM)	relative viability ([4]; first compound 0.03162 µM)	relative viability ([4]; first compound 0.1 µM)	relative viability ([3]; first compound 0.1265 µM)
HCC-15	0.647	0.71	0.747	0.676	0.482	0.704	0.732	0.686	0.651	0.593	0.93	0.787	0.816	0.828	1.02	1.14	1.05	1.03	0.952	
SK-LU-1	0.705	0.599	0.714	0.606	0.422	0.821	0.895	0.874	1.42	0.275	0.973	0.781	0.897	0.983	1.28	0.931	0.955	1.31	0.821	0.853
NCI-H2023	0.234	0.232	0.213	0.182	0.0828	1.02	0.986	0.926	0.577	0.15	0.579	0.489	0.575	0.588	0.981	1.07	0.957	0.421	0.0849	0.703
HCC-366	0.385	0.418	0.339	0.373	0.336	1.05	1.07	1.04	1.04	0.0551	0.629	0.423	0.466	0.788	0.948	1.06	1.04	0.994	0.397	0.574
NCI-H1355	0.401	0.332	0.359	0.351	0.385	0.929	0.949	0.902	1.08	0.715	1.1	1.08	0.992	1.31	1.13	1.19	1.18	1.24	0.951	0.977
NCI-H1650	0.468	0.5	0.439	0.491	0.369	1.37	1.23	1.18	0.815	0.166	1.29	0.794	0.953	0.879	0.234	0.24	0.208	0.221	0.203	1.05
SW 1573	0.627	0.552	0.491	0.282	0.135	1.03	1.01	0.921	0.6	0.168	0.833	0.726	0.717	0.889	1.03	1.02	1.15	0.653	0.227	0.764
LU99A	0.783	1.01	0.846	0.769	0.879	0.794	0.73	0.763	0.706	0.665	0.639	0.59	0.547	0.649	1.15	1.1	1.07	1.14	0.8	
